Data on 2 compounds can be found in patent publication US20090032427A1, “Receptacles and Kits, Such as for Dry Powder Packaging” (Nektar Therapeutics, priority 2005, published 2009).

Each structure is given as a SMILES string.

The conditions of data set [1]: cited from earlier work.
Data set [2] can be described thus: amphotericin B lung-residence half-life (bronchioalveolar lavage / lung tissue homogenization). The format is in vivo. Conditions: pulmonary administration.
The test system of data set [3] is fungus. Briefly: minimum inhibitory concentration (MIC) of amphotericin B. The format is cell-based. Conditions: midrange of the MIC range, 300′ of FIG. 25. Here is the method: In one version, an aerosolizeable pharmaceutical composition comprising amphotericin B is administered to the lungs and/or nasal cavity of a patient in a manner that results in an amphotericin B concentration greater than a minimum inhibitory concentration (MIC) of the fungus. The MIC is defined as the lowest concentration of amphotericin B that inhibits fungal growth. The MIC may be expressed as a particular concentration value or as a range of concentrations. A method according to one or more embodiments of the present invention administers a sufficient amount of the pharmaceutical composition to achieve a target lung concentration of amphotericin B that falls within the range of MIC values or is above a particular MIC value. In another version, the target lung concentration of amphotericin B exceeds the MIC range. In another version, the target lung concentration of amphotericin B exceeds the lowest value in an MIC range. […] As used herein, unless otherwise specified, the MIC value shall be taken to be the particular value when a particular MIC value is determined and shall be taken to be a midrange value when a range of MIC values is determined. […]
The MIC value for amphotericin B in this version has been determined to range from about 0.5 μg/g to about 4 μg/g, as shown by block 300. […]

Consider `CCCCCCCCCCCCCCCC(=O)OC[C@H](COP(=O)([O-])OCC[N+](C)(C)C)OC(=O)CCCCCCCCCCCCCCC` [DPPC, dipalmitoylphosphatidylcholine], for which the solubility in water entry in data set [1] is recorded as “about 10^−10 mol/L”.

Regarding `C[C@@H]1[C@H](O)[C@@H](C)/C=C/C=C/C=C/C=C/C=C/C=C/C=C/[C@H](O[C@@H]2O[C@H](C)[C@@H](O)[C@H](N)[C@@H]2O)C[C@@H]2O[C@](O)(C[C@@H](O)C[C@@H](O)[C@H](O)CC[C@@H](O)C[C@@H](O)CC(=O)O[C@H]1C)C[C@H](O)[C@H]2C(=O)O` [amphotericin B], in data set [2] (lung epithelial fluid, measured by bronchioalveolar lavage), the “amphotericin B lung-residence half-life in lung epithelial fluid” value is “at least 10 hours”. The “amphotericin B lung-residence half-life in lung tissue” value in data set [2] (lung tissue, measured by lung tissue homogenization) is “at least 1 week”. The “midrange MIC value” in data set [3] is given as “about 2.25 μg/g”.
